Entries after “also recorded” stand apart in the source; their conditions may differ. Starred links: 1 amine or outer side, 2 acyl side, 3 side chain; linkers in the order of their positions; H or OH if unused. Positions of bridges follow the written chain, without caps; N, C: chain ends. Non-standard residues stand in square brackets, D forms with d. Residues, ends and D or L forms follow the SMILES beside them. Trp(7-aza) = N[C@@H](Cc1c[nH]c2ncccc12)C(=O)O; Tiq1c(1S) = O=C(O)[C@H]1NCCc2ccccc21; mXylylene = c1cc(C[*:1])cc(C[*:2])c1; pXylylene = c1cc(C[*:2])ccc1C[*:1]; Phg = N[C@H](C(=O)O)c1ccccc1; Tle = CC(C)(C)[C@H](N)C(=O)O; NMeS = CN[C@@H](CO)C(=O)O; hCys = N[C@@H](CCS)C(=O)O; Nva = CCC[C@H](N)C(=O)O
target: T1, C5 (Homo sapiens, UniProt P01031); assay: Human hemolysis assay (RBC lysis assay using complete human sera); format: cell-based; parameters: with complete human sera (Complement Technology, Tyler Tex.) and polypeptides; tissue Complement Technology, Tyler Tex; host or cells: complete human serum; conditions: antibody-sensitized sheep erythrocytes, complete human sera
T1 sequence (P01031 678-1676 limits assumed): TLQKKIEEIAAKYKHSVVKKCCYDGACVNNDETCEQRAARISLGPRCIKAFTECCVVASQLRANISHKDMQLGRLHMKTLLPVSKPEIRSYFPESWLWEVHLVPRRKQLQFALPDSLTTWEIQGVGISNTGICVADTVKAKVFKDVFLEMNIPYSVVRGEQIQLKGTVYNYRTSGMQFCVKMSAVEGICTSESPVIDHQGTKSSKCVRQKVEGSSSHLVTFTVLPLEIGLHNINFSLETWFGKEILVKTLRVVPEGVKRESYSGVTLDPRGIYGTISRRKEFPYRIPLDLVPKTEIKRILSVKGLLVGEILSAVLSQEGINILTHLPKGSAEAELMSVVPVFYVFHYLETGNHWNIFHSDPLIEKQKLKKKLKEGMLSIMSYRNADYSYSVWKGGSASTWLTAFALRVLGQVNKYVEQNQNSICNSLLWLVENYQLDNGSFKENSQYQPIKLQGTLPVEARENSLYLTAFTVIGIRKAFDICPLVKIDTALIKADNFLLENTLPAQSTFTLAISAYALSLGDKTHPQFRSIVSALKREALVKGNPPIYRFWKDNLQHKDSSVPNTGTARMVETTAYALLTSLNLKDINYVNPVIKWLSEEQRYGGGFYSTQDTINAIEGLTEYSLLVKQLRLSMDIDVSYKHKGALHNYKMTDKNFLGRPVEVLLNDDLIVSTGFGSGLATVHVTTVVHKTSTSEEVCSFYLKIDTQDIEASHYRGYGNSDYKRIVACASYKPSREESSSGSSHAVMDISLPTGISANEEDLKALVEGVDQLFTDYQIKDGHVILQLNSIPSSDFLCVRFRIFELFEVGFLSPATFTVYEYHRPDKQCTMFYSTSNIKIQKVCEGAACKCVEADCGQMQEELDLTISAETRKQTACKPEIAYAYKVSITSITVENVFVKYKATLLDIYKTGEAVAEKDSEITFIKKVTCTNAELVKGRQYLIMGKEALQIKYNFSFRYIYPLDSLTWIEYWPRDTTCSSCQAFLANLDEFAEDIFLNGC
T1 sequence (P01031 19-673 limits assumed): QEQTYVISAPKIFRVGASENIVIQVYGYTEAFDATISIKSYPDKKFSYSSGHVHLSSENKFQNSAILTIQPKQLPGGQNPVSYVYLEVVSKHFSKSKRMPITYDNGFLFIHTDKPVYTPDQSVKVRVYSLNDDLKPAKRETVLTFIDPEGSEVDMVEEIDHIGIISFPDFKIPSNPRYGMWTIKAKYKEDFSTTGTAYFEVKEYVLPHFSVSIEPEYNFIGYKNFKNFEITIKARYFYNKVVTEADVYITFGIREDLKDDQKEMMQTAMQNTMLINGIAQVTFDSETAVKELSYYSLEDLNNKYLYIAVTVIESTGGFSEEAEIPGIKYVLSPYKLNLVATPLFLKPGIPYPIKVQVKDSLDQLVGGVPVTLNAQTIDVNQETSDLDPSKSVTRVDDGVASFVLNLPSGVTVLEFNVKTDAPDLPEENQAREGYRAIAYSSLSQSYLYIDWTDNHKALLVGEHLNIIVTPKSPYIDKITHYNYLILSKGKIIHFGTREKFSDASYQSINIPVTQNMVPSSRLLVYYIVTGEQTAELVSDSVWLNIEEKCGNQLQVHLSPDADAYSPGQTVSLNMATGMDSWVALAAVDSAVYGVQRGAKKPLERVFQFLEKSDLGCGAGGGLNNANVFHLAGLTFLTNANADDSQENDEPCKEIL
Procedure: Polypeptides listed in Table 3, as well as their optimized derivatives (see Table 4) were assessed for inhibitor activity using a red blood cell hemolysis assay. […] Human sera was rapidly thawed at 37° C. and then stored on ice until diluted into GVB++. Ten 6-fold serial dilutions of polypeptides (10 mM stock, DMSO) were performed in DMSO and then added to buffer. 50 μl of each polypeptide dilution was combined with sera and 100 μl of cells in individual wells of a 96-well tissue culture-treated clear microtitre plate (USA Scientific, Ocala, Fla.) and resuspended by pipetting. Samples were incubated at 37° C. for one hour. […] Data was fit with a log-logit formula producing a dose-response curve and IC50. As used herein, the term “IC50” refers to the half maximal inhibitory concentration, a value used to indicate the amount of the inhibitor needed to reduce a given reaction or process by half.
The human constant light chain kappa and IgG2 constant heavy chain sequences were used for the constants regions of the antibody. This antibody was expressed from human embryonic kidney cells (HEK293) and purified by Protein A affinity chromatography. […] Human sera was rapidly thawed at 37° C. and then stored on ice until diluted into GVB++. Ten 6-fold serial dilutions of each compound (10 mM stock, DMSO) were performed in DMSO and then added to buffer. 50 μl of each compound dilution was combined with sera and 100 μl of cells in individual wells of a 96-well tissue culture-treated clear microtitre plate (USA Scientific, Ocala, Fla.) and resuspended by pipetting. Samples were incubated at 37° C. for one hour. […] Data was fit with a log-logit formula producing a dose-response curve and IC50 (see FIG. 11A).

Row | SMILES | IC50
1 | CCC[C@H](NC(=O)[C@@H]1CCSCc2ccc(cc2)CSCC[C@H](NC(=O)[C@H](CCC)NC(C)=O)C(=O)N[C@@H](c2ccccc2)C(=O)N[C@@H]([C@@H](C)O)C(=O)N[C@@H](Cc2c[nH]c3ncccc23)C(=O)N[C@@H](CCC(=O)O)C(=O)N[C@@H](Cc2ccc(O)cc2)C(=O)N(C)[C@@H](CO)C(=O)N[C@@H](Cc2c[nH]cn2)C(=O)N1)C(N)=O [Compound R3108, [pXylyl(2,10)]Ac-Nvl-homoC-Phg-T-azaTrp-E-Y-(N—Me)S-H-homoC-Nvl-NH2] (Ac-[Nva][hCys][Phg]T[Trp(7-aza)]EY[NMeS]H[hCys][Nva]-NH2; linker 2-10 via pXylylene) | > 75 µM
2 | CCC[C@H](NC(=O)[C@@H]1CSCc2cccc(c2)CSC[C@H](NC(=O)[C@H](CCC)NC(C)=O)C(=O)N2CCc3ccccc3[C@H]2C(=O)N[C@@H]([C@@H](C)O)C(=O)N[C@@H](Cc2c[nH]c3ncccc23)C(=O)N[C@@H](CCC(=O)O)C(=O)N[C@@H](Cc2ccc(O)cc2)C(=O)N(C)[C@@H](CO)C(=O)N[C@@H](Cc2c[nH]cn2)C(=O)N1)C(N)=O [Compound R3122, [mXylyl(2,10)]Ac-Nvl-C-Tiq-T-azaTrp-E-Y-(N—Me)S-H-C-Nvl-NH2] (Ac-[Nva]C[Tiq1c(1S)]T[Trp(7-aza)]EY[NMeS]HC[Nva]-NH2; linker 2-10 via mXylylene) | > 50 µM
3 | CCC[C@H](NC(=O)[C@@H](NC(=O)[C@@H]1CCCN1C(=O)[C@H](Cc1ccc(O)cc1)NC(=O)[C@H](CCC(=O)O)NC(=O)[C@H](Cc1c[nH]c2ncccc12)NC(=O)[C@H](Cc1ccc(O)cc1)NC(=O)[C@@H](NC(=O)[C@H](CC(=O)O)NC(=O)[C@@H]1CSCc2cccc(c2)CSC[C@H](NC(C)=O)C(=O)N[C@@H](C(C)C)C(=O)N[C@@H](C)C(=O)N[C@@H](CCCNC(=N)N)C(=O)N[C@@H](Cc2ccccc2)C(=O)N1)C(C)(C)C)c1ccccc1)C(N)=O [Compound R3150, [mXylyl(1,6)]Ac-C-V-A-R-F-C-D-Tbg-Y-azaTrp-E-Y-P-Phg-Nvl-NH2] (Ac-CVARFCD[Tle]Y[Trp(7-aza)]EYP[Phg][Nva]-NH2; linker 1-6 via mXylylene) | 0.032 µM
4 | CC(=O)N[C@H]1CSCc2cccc(c2)CSC[C@@H](C(N)=O)NC(=O)[C@H](Cc2c[nH]cn2)NC(=O)[C@H](CO)N(C)C(=O)[C@H](Cc2ccc(O)cc2)NC(=O)[C@H](CCC(=O)O)NC(=O)[C@H](Cc2c[nH]c3ncccc23)NC(=O)[C@H]([C@@H](C)O)NC(=O)[C@H](c2ccccc2)NC1=O [Compound R3015, [mXylyl(1,9)]Ac-C-Phg-T-azaTrp-E-Y-(N—Me)S-H-C-NH2] (Ac-C[Phg]T[Trp(7-aza)]EY[NMeS]HC-NH2; linker 1-9 via mXylylene) | > 3.96 µM

same assay, conditions: relative to parent polypeptide

Row | SMILES | change in ability to inhibit red blood cell lysis in words
5 | CC(=O)N[C@H]1CSCc2cccc(c2)CSC[C@@H](C(=O)N[C@@H](CC(=O)O)C(=O)N[C@H](C(=O)N[C@@H](Cc2ccc(O)cc2)C(=O)N[C@@H](Cc2c[nH]c3ccccc23)C(=O)N[C@@H](CCC(=O)O)C(=O)N[C@@H](Cc2ccccc2)C(N)=O)C(C)C)NC(=O)[C@H](Cc2ccccc2)NC(=O)[C@H](CCCNC(=N)N)NC(=O)[C@H](CCC(=O)O)NC(=O)[C@H](C(C)C)NC1=O [Compound R3048, [mXylyl(1,6)]Ac-C-V-E-R-F-C-D-V-Y-W-E-F-NH2] (Ac-CVERFCDVYWEF-NH2; linker 1-6 via mXylylene) | increased the ability
6 | CC(=O)N[C@H]1CSCc2cccc(c2)CSC[C@@H](C(=O)N[C@H](C(=O)N[C@@H](Cc2ccc(O)cc2)C(=O)N[C@@H](Cc2c[nH]c3ccccc23)C(=O)N[C@@H](CCC(=O)O)C(=O)N[C@@H](Cc2ccccc2)C(N)=O)C(C)C)NC(=O)[C@H](Cc2ccccc2)NC(=O)[C@H](CCCNC(=N)N)NC(=O)[C@H](CCC(=O)O)NC(=O)[C@H](C(C)C)NC1=O [Compound R3124, [mXylyl(1,6)]Ac-C-V-E-R-F-C-V-Y-W-E-F-NH2] (Ac-CVERFCVYWEF-NH2; linker 1-6 via mXylylene) | decrease in the ability
7 | CC(=O)N[C@H]1CSCc2cccc(c2)CSC[C@@H](C(=O)N[C@@H](Cc2c[nH]c3ccccc23)C(=O)N[C@@H](CCC(=O)O)C(=O)N[C@@H](Cc2ccccc2)C(N)=O)NC(=O)[C@H](Cc2ccccc2)NC(=O)[C@H](CCCNC(=N)N)NC(=O)[C@H](CCC(=O)O)NC(=O)[C@H](C(C)C)NC1=O [Compound R3125, [mXylyl(1,6)]Ac-C-V-E-R-F-C-W-E-F-NH2] (Ac-CVERFCWEF-NH2; linker 1-6 via mXylylene) | decrease in the ability

target: T1, C5; assay: Competitive fluorescence polarization (FP) binding assay with probe R3076; parameters: purchased Complement Technology, Tyler, Tex; conditions: not given
Procedure: FP was used for screening competitive polypeptide inhibitors of the C5 protein. […] The BODIPY-TMR dye attached to the C-terminal lysine of the protein and the subsequent labeled probe was purified by HPLC.
Human C5 protein was diluted to 200 nM in assay buffer, composed of TBS (EMD Millipore, Billerica, Mass.)+0.005% Triton-X (Sigma, Saint Louis, Mo.). 10 μl of assay buffer was added to all wells of a black, non-binding, 384-well assay plate (Greiner, Monroe, N.C.) and 10 μl of diluted C5 protein stock was added to experimental and designated control wells.
Probe R3076 (SEQ ID NO: 40) was diluted 1 to 10 in DMSO (Life Technologies, Grand Island, N.Y.) and 30 μl of that stock was diluted in 3 ml of assay buffer to yield a 100 nM stock. 10 μl of this working stock was then added to each well in the assay plate. The assay plate was incubated at room temperature, protected from light, for 20 minutes to allow binding to reach equilibrium.
Test articles listed in Table 7 were subsequently diluted in DMSO then assay buffer, comprising 10 2-fold dilutions and were then added to the assay plate in triplicate, rapidly. The assay plate was then incubated in the Paradigm (Molecular Devices, Sunnyvale, Calif.) plate reader for 60 minutes at 25° C.
After incubation for 60 minutes, the plate was read using the Paradigm FP protocol (Molecular Devices, Sunnyvale, Calif.) and raw polarization values were imported into Graphpad Prism.

Row | SMILES | competition for / affinity for C5 in words
8 | CCC[C@H](NC(=O)[C@H](Cc1ccc(O)cc1)NC(=O)[C@H](CC(N)=O)NC(=O)[C@H](CCC)NC(=O)[C@H](CCC(=O)O)NC(=O)[C@@H](NC(=O)[C@H](Cc1c[nH]c2ncccc12)NC(=O)[C@@H](NC(=O)[C@H](CS)NC(=O)[C@H](Cc1ccc(O)cc1)NC(=O)[C@@H]1CCCN1C(=O)[C@H](Cc1ccc(O)cc1)NC(C)=O)c1ccccc1)C(C)(C)C)C(=O)N[C@@H](CCC(=O)O)C(N)=O [Compound R3023, Ac-Y-P-Y-C-Phg-azaTrp-Tbg-E-Nvl-N-Y-Nvl-E-NH2] (Ac-YPYC[Phg][Trp(7-aza)][Tle]E[Nva]NY[Nva]E-NH2) | no activity at the highest concentration tested; also recorded: not detected at the highest concentration tested; also recorded: no affinity
9 | CCC[C@H](NC(C)=O)C(=O)N[C@@H](CS)C(=O)N[C@@H](Cc1ccc(O)cc1)C(=O)N[C@@H](CCC(=O)O)C(=O)N[C@@H](CC(N)=O)C(=O)N[C@H](C(=O)N[C@@H](Cc1ccc(O)cc1)C(=O)N[C@@H](Cc1c[nH]c2ncccc12)C(=O)N[C@@H](CCC(=O)O)C(=O)N[C@@H](Cc1ccc(O)cc1)C(=O)N1CCC[C@H]1C(=O)N[C@H](C(=O)N1CCC[C@H]1C(N)=O)c1ccccc1)C(C)(C)C [Compound R3003, Ac-Nvl-C-Y-E-N-Tbg-Y-azaTrp-E-Y-P-Phg-P-NH2] (Ac-[Nva]CYEN[Tle]Y[Trp(7-aza)]EYP[Phg]P-NH2) | most potent
10 | CCC[C@H](NC(C)=O)C(=O)N[C@H]1CSCc2cccc(c2)CSC[C@@H](C(=O)N[C@@H](CCC)C(=O)N2CCC[C@H]2C(N)=O)NC(=O)[C@H](Cc2c[nH]cn2)NC(=O)[C@H](CO)N(C)C(=O)[C@H](Cc2ccc(O)cc2)NC(=O)[C@H](CCC(=O)O)NC(=O)[C@H](Cc2c[nH]c3ncccc23)NC(=O)[C@H]([C@@H](C)O)NC(=O)[C@H](c2ccccc2)NC1=O [Compound R3011, [mXylyl(2,10)]Ac-Nvl-C-Phg-T-azaTrp-E-Y-(N—Me)S-H-C-Nvl-P-NH2] (Ac-[Nva]C[Phg]T[Trp(7-aza)]EY[NMeS]HC[Nva]P-NH2; linker 2-10 via mXylylene) | relatively strong affinity
11 | CSCC[C@H](N)C(=O)N[C@H]1CSCc2cccc(c2)CSC[C@@H](C(=O)N[C@@H](CC(=O)O)C(=O)N[C@H](C(=O)N[C@@H](Cc2ccc(O)cc2)C(=O)N[C@@H](Cc2c[nH]c3ccccc23)C(=O)N[C@@H](CCC(=O)O)C(N)=O)C(C)C)NC(=O)[C@H](Cc2ccccc2)NC(=O)[C@H](CCCNC(=N)N)NC(=O)[C@H](CCC(=O)O)NC(=O)[C@H](C(C)C)NC1=O [Compound R3043, [mXylyl(2,7)]M-C-V-E-R-F-C-D-V-Y-W-E-NH2] (H-MCVERFCDVYWE-NH2; linker 2-7 via mXylylene) | weak affinity
12 | CCC[C@H](NC(=O)[C@@H]1CCCN1C(=O)[C@H](CCC)NC(=O)[C@@H]1CSCc2cccc(c2)CSC[C@H](NC(C)=O)C(=O)N[C@@H](c2ccccc2)C(=O)N[C@@H]([C@@H](C)O)C(=O)N[C@@H](Cc2c[nH]c3ncccc23)C(=O)N[C@@H](CCC(=O)O)C(=O)N[C@@H](Cc2ccc(O)cc2)C(=O)N(C)[C@@H](CO)C(=O)N[C@@H](Cc2c[nH]cn2)C(=O)N1)C(N)=O [Compound R3014, [mXylyl(1,9)]Ac-C-Phg-T-azaTrp-E-Y-(N—Me)S-H-C-Nvl-P-Nvl-NH2] (Ac-C[Phg]T[Trp(7-aza)]EY[NMeS]HC[Nva]P[Nva]-NH2; linker 1-9 via mXylylene) | weak affinity

Source: US11707503B2, “Modulators of complement activity” (Ra Pharmaceuticals, Inc., priority 2015, dated 2023)
